These results are taken from patent US20240327382A1 (ALMAC DISCOVERY LIMITED, priority 2021, published 2024).

Each structure is given as a SMILES string.

For this experiment, the target named is T1, Full-length USP19 (Homo sapiens, UniProt O94966).
T1 construct: Full-length USP19 was purchased from Boston Biochem (E-576); purchased Boston Biochem E-576
T1 sequence (O94966 1-1318): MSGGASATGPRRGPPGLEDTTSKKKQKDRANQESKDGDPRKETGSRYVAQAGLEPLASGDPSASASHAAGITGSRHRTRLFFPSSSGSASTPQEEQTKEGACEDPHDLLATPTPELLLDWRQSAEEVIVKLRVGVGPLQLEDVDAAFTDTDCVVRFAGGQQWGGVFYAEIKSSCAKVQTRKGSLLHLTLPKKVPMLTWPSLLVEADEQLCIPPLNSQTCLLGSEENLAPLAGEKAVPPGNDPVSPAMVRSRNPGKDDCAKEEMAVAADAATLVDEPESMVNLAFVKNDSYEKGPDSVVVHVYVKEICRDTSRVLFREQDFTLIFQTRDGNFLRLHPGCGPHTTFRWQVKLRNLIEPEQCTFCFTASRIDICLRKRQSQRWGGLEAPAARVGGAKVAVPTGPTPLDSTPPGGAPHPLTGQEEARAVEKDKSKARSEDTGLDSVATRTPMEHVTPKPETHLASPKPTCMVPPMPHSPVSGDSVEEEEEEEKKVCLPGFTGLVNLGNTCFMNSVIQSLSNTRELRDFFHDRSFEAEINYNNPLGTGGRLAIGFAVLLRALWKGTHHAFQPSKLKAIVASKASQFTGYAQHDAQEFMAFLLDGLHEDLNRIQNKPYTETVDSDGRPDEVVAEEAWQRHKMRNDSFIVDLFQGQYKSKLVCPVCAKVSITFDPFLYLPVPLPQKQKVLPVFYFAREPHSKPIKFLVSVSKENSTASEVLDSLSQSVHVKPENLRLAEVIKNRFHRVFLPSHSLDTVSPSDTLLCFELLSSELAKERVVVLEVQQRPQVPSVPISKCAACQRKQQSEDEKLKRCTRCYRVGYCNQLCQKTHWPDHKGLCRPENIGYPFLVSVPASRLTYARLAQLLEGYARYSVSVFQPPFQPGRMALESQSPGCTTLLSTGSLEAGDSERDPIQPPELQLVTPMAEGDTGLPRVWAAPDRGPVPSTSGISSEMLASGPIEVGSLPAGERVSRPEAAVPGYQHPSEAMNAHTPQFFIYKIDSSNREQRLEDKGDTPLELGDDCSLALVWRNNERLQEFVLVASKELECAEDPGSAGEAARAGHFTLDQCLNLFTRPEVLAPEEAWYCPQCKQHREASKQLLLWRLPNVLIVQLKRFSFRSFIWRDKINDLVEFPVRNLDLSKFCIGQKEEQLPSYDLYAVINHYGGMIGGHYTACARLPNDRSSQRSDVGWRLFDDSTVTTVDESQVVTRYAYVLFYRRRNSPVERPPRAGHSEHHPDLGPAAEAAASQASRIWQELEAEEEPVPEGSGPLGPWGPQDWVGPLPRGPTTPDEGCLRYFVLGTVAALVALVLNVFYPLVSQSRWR
The experiment is described as follows: USP19 fluorescence polarisation (FP) assay, Ubiquitin-Lys-TAMRA substrate. The format is biochemical. Conditions: average of at least two duplicate experiments. The method in brief: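 Full-length human USP19 (added at 2.5 nM) was preincubated 30 min at RT with inhibitor (serial dilutions 200 μM to 2 μM) in 50 mM HEPES pH 7.4, 150 mM NaCl, 5 mM DTT, 0.05% BSA, 0.05% CHAPS. Ubiquitin-Lys-TAMRA isopeptide substrate (added at 500 nM) started the reaction, and FP (Ex 530/Em 575 nm) was read every 15 min over 90 min. IC50 came from non-linear regression of signal normalised to no-compound control, averaged over at least two duplicate experiments.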
A general note: Fluorescence polarisation rises when a labelled molecule tumbles more slowly, as on binding a larger partner.

The IC50 is the concentration needed to halve the response being measured. As to `CN[C@@H]1CCN(C(=O)N2CC[C@@H](Cn3ccc(-c4ccccc4)cc3=O)C3(CCCC3)C2)[C@H](c2cc(F)cc(F)c2)C1` [Example 121, 1-(((R)-7-((2S,4R)-2-(3,5-Difluorophenyl)-4-(methylamino)piperidine-1-carbonyl)-7-azaspiro[4.5]decan-10-yl)methyl)-4-phenylpyridin-2(1H)-one], the half-inhibitory concentration (IC50) is < 0.01 µM.
As for `CN[C@@H]1CCN(C(=O)N2CC[C@@H](Cn3cnc4ccc(F)cc4c3=O)C3(CCCC3)C2)[C@H](c2cc(F)cc(F)c2)C1` [Example 153, 3-(((R)-7-((2S,4R)-2-(3,5-Difluorophenyl)-4-(methylamino)piperidine-1-carbonyl)-7-azaspiro[4.5]decan-10-yl)methyl)-6-fluoroquinazolin-4(3H)-one], the IC50 was < 0.01 µM.
Regarding `CC(C)N[C@@H]1CCN(C(=O)N2CC[C@@H](Cn3cnc4ccc(F)cc4c3=O)C3(CCCC3)C2)[C@H](c2cc(F)ccc2F)C1` [Example 189, 3-(((R)-7-((2S,4R)-2-(2,5-Difluorophenyl)-4-(isopropylamino)piperidine-1-carbonyl)-7-azaspiro[4.5]decan-10-yl)methyl)-6-fluoroquinazolin-4(3H)-one], the IC50 was < 0.01 µM.
Regarding `CCN[C@@H]1CCN(C(=O)N2CC[C@@H](Cn3cnc(-c4ccccc4)cc3=O)C3(CCCC3)C2)[C@H](c2ccccc2)C1` [Example 62, 3-(((R)-7-((2S,4R)-4-(Ethylamino)-2-phenylpiperidine-1-carbonyl)-7-azaspiro[4.5]decan-10-yl)methyl)-6-phenylpyrimidin-4(3H)-one], the IC50 was < 0.01 µM.
With `CN[C@@H]1CCN(C(=O)N2CC[C@@H](Cn3cnc4ccc(F)cc4c3=O)C3(CCCC3)C2)[C@H](c2cccc(F)c2F)C1` [Example 166, 3-(((R)-7-((2S,4R)-2-(2,3-Difluorophenyl)-4-(methylamino)piperidine-1-carbonyl)-7-azaspiro[4.5]decan-10-yl)methyl)-6-fluoroquinazolin-4(3H)-one], the IC50 is < 0.01 µM.
With `C[C@H](CC(F)(F)F)C(=O)N1CCC(Cn2ccc(-c3ccccc3)cc2=O)C2(CCCC2)C1` (stereo partly drawn) [Example 5, 4-Phenyl-1-((7-((R)-4,4,4-trifluoro-2-methylbutanoyl)-7-azaspiro[4.5]decan-10-yl)methyl)pyridin-2(1H)-one], the half-maximal inhibitory concentration (IC50) was in the range of 1 to 20 µM.
Turning to `O=C(N1CCC(Cn2cnc(-c3ccccc3)cc2=O)C2(CCCC2)C1)N1CCC[C@H]1c1ccccc1` (stereo partly drawn) [Example 8, 6-Phenyl-3-((7-((S)-2-phenylpyrrolidine-1-carbonyl)-7-azaspiro[4.5]decan-10-yl)methyl)pyrimidin-4(3H)-one], the IC50 was 0.1 to 1 µM.
For `CN[C@H]1C[C@@H](c2ccccc2)N(C(=O)N2CC[C@@H](Cn3cnc(-c4ccccc4)cc3=O)C3(CCCC3)C2)C1` [Example 90, 3-(((R)-7-((2S,4S)-4-(Methylamino)-2-phenylpyrrolidine-1-carbonyl)-7-azaspiro[4.5]decan-10-yl)methyl)-6-phenylpyrimidin-4(3H)-one], the IC50 was < 0.01 µM.
For `CN[C@@H]1CCN(C(=O)N2CC[C@@H](Cn3cnc(-c4ccccc4C)cc3=O)C3(CCCC3)C2)[C@H](c2ccc(F)c(F)c2)C1` [Example 139, 3-(((R)-7-((2S,4R)-2-(3,4-Difluorophenyl)-4-(methylamino)piperidine-1-carbonyl)-7-azaspiro[4.5]decan-10-yl)methyl)-6-(0-tolyl)pyrimidin-4(3H)-one], the concentration for half-maximal inhibition (IC50) was < 0.01 µM.
For the compound `Cc1ccccc1-c1cc(=O)n(C[C@@H]2CCN(C(=O)N3CC[C@@H](N)C[C@H]3c3cc(F)ccc3F)CC23CCCC3)cn1` [Example 82, 3-(((R)-7-((2S,4R)-4-Amino-2-(2,5-difluorophenyl)piperidine-1-carbonyl)-7-azaspiro[4.5]decan-10-yl)methyl)-6-(o-tolyl)pyrimidin-4(3H)-one], the IC50 was < 0.01 µM.
In the case of `O=C1OCCN1[C@@H]1CCN(C(=O)N2CC[C@@H](Cn3cnc(-c4ccccc4)cc3=O)C3(CCCC3)C2)[C@H](c2cccc(F)c2)C1` [Example 197, 3-((2S,4R)-2-(3-Fluorophenyl)-1-((R)-10-((6-oxo-4-phenylpyrimidin-1(6H)-yl)methyl)-7-azaspiro[4.5]decane-7-carbonyl)piperidin-4-yl)oxazolidin-2-one], the IC50 was in the range of 0.01 to 0.1 µM.
On to `O=C(N1CC[C@@H](Cn2ccc(-c3ccccc3)cc2=O)C2(CCCC2)C1)N1CC[C@@H](NC2(CF)COC2)C[C@H]1c1ccccc1` [Example 112, 1-(((R)-7-((2S,4R)-4-((3-(Fluoromethyl)oxetan-3-yl)amino)-2-phenylpiperidine-1-carbonyl)-7-azaspiro[4.5]decan-10-yl)methyl)-4-phenylpyridin-2(1H)-one], for which the IC50 fell in the range of 0.01 to 0.1 µM.
For the compound `CN[C@@H]1CCN(C(=O)N2CC[C@@H](Cn3cnc(-c4ccccc4C)cc3=O)C3(CCCC3)C2)[C@H](c2ccc(F)cc2F)C1` [Example 137, 3-(((R)-7-((2S,4R)-2-(2,4-Difluorophenyl)-4-(methylamino)piperidine-1-carbonyl)-7-azaspiro[4.5]decan-10-yl)methyl)-6-(o-tolyl)pyrimidin-4(3H)-one], the IC50 was < 0.01 µM.
On to `COc1ccccc1-c1ccn(C[C@@H]2CCN(C(=O)N3CC[C@@H](N)C[C@H]3c3ccccc3)CC23CCCC3)c(=O)c1` [Example 59, 1-(((R)-7-((2S,4R)-4-Amino-2-phenylpiperidine-1-carbonyl)-7-azaspiro[4.5]decan-10-yl)methyl)-4-(2-methoxyphenyl)pyridin-2(1H)-one], for which the IC50 was < 0.01 µM.
As for `O=C(N1CCC(Cn2cnc(-c3ccccc3)cc2=O)CC1)N1CCNC[C@H]1c1ccccc1` [Example 1, (R)-6-Phenyl-3-((1-(2-phenylpiperazine-1-carbonyl)piperidin-4-yl)methyl)pyrimidin-4(3H)-one], the IC50 lay within 0.1 to 1 µM.
`CC(=O)N[C@@H]1CCN(C(=O)N2CC[C@@H](Cn3cnc4ccc(F)cc4c3=O)C3(CCCC3)C2)[C@H](c2cc(F)ccc2F)C1` [Example 172, N-((2S,4R)-2-(2,5-Difluorophenyl)-1-((R)-10-((6-fluoro-4-oxoquinazolin-3(4H)-yl)methyl)-7-azaspiro[4.5]decane-7-carbonyl)piperidin-4-yl)acetamide]: the IC50 was < 0.01 µM.
As to `CN[C@@H]1CCN(C(=O)N2CC[C@@H](CN3CCC(c4ccccc4)=CC3=O)C3(CCCC3)C2)[C@H](c2cc(F)ccc2F)C1` [Example 168, 1-(((R)-7-((2S,4R)-2-(2,5-Difluorophenyl)-4-(methylamino)piperidine-1-carbonyl)-7-azaspiro[4.5]decan-10-yl)methyl)-4-phenyl-5,6-dihydropyridin-2(1H)-one], the IC50 was < 0.01 µM.
Consider `N[C@@H]1CCN(C(=O)N2CC[C@@H](Cn3cnc(-c4ccccc4)cc3=O)C3(CCCC3)C2)[C@H](c2ccccc2)C1` [Example 25], for which the IC50 is < 0.01 µM.
As for `CC[C@@H]1C[C@H](N)CCN1C(=O)N1CC[C@@H](Cn2ccc(-c3ccccc3)cc2=O)C2(CCCC2)C1` [Example 68, 1-(((R)-7-((2R,4R)-4-Amino-2-ethylpiperidine-1-carbonyl)-7-azaspiro[4.5]decan-10-yl)methyl)-4-phenylpyridin-2(1H)-one], the IC50 is 0.01 to 0.1 µM.
As for `O=C(N1CC[C@@H](Cn2cnc(-c3ccccc3)cc2=O)C2(CCCC2)C1)N1CC[C@@H](Nc2ccccc2)C[C@H]1c1ccccc1` [Example 150, 6-Phenyl-3-(((R)-7-((2S,4R)-2-phenyl-4-(phenylamino)piperidine-1-carbonyl)-7-azaspiro[4.5]decan-10-yl)methyl)pyrimidin-4(3H)-one], the half-inhibitory concentration (IC50) lay within 1 to 20 µM.
For `CN[C@@H]1CCN(C(=O)N2CC[C@@H](Cn3cnc(-c4ccccc4)cc3=O)C3(CCCC3)C2)[C@H](c2cccc(F)c2)C1` [Example 63, 3-(((R)-7-((2S,4R)-2-(3-Fluorophenyl)-4-(methylamino)piperidine-1-carbonyl)-7-azaspiro[4.5]decan-10-yl)methyl)-6-phenylpyrimidin-4(3H)-one], the half-maximal inhibitory concentration (IC50) was < 0.01 µM.
